Source: article PMC5927802, “Pharmacokinetics, safety, and tolerability of the 2‐ and 3‐direct‐acting antiviral combination of AL‐335, odalasvir, and simeprevir in healthy subjects” (Pharmacology Research & Perspectives, 2018)
Where two headings read alike, the source gives them in different places.

Key:
[1] = Plasma pharmacokinetics, Phase I open‐label two‐group fixed‐sequence drug‐drug interaction study; details: for AUC0‐24 h LSM ratio / C max LSM ratio: point estimate (90% CI); for AUC: AUC0‐24 h; for Tmax: T max
Description: This was an open‐label, two‐group, fixed‐sequence study conducted at a single study center in Rennes, France (Biotrial). A two‐group, fixed‐sequence study design was chosen as this was deemed to be the most efficient way to evaluate the effect of simeprevir with/without odalasvir on AL‐335; and vice versa (Group 1) and the effect of odalasvir with/without simeprevir on AL‐335; and vice versa (Group 2). Thus, this study design had the potential to gather both 2‐way and 3‐way DDIs. For both groups, the study consisted of a screening period, a study period, and two follow‐up visits. The study was authorized by the French National Agency for the Safety of Medicine and Health Products (ANSM) and was approved by an Independent Ethics Committee (Comité de Protection des Personnes [CPP] Ouest VI, Brest, France; Reference CPP Ouest 6–CPP 888/MS1), and was conducted in accordance with the principles of the Declaration of Helsinki and International Conference on Harmonization. All subjects provided written informed consent to participate. Drug and molecular target nomenclature in this manuscript conforms to the British Journal of Pharmacology's Concise Guide to Pharmacology 2017/18.19
Subjects in Group 1 received simeprevir 150 mg QD on days 4‐23, odalasvir 150 mg (loading dose) on day 14, odalasvir 50 mg QD on days 15‐23, and AL‐335 800 mg QD on days 1‐3, 11‐13, and 21‐23. Subjects in Group 2 received odalasvir 150 mg (loading dose) on day 4, odalasvir 50 mg QD on days 5‐23, simeprevir 150 mg QD on days 14‐23, and AL‐335 800 mg QD on days 1‐3, 11‐13, and 21‐23. […] A minimum of 10 days was considered sufficient for both odalasvir and simeprevir to reach steady‐state.
Subjects were assigned sequentially to Group 1 then to Group 2 after confirming eligibility.
As this was an […] pharmacokinetic study, blood samples for pharmacokinetic analysis were collected predose and at 0.25, 0.5, 1, 2, 3, 4, 6, 8, 10, 12, and 24 hours postdose on days 3, 13, and 23 for determination of AL‐335, ALS‐022399, and ALS‐022227 plasma concentrations (Groups 1 and 2). For simeprevir, blood samples for determination of simeprevir plasma concentrations were taken at the same time points but on days 10, 13, 20, and 23 (Group 1) or days 20 and 23 (Group 2). Blood samples for the determination of odalasvir plasma concentrations were collected predose and at 1, 3, 4, 5, 6, 7, 8, 9, 10, 12, 16, and 24 hours postdose on days 20 and 23 (Group 1) or days 10, 13, 20, and 23 (Group 2), with two further samples also collected on the day 7 and day 28 follow‐up assessments (both groups).
Plasma concentrations of AL‐335, ALS‐022399, ALS‐022227, odalasvir, and simeprevir were determined using validated liquid chromatography‐tandem mass spectrometry methods. Dichlorvos solution was added to blood samples from AL‐335‐treated subjects to stabilize AL‐335 and its metabolites (25 μL of 5 mmol/L dichlorvos into 1 mL blood). The lower limit of quantification was 1 ng/mL, 2 ng/mL, and 5 ng/mL for AL‐335, ALS‐022399, and ALS‐022227, respectively, 1 ng/mL for odalasvir, and 2 ng/mL for simeprevir.
Pharmacokinetic analyses were performed on all subjects with available profiles who received at least one dose of study drug without any protocol deviation affecting pharmacokinetic evaluation. […] Secondary parameters were last observed plasma concentration, apparent elimination half‐life, time of the maximum observed plasma concentration (T max), and time to last measurable plasma concentration (T last).

P‐glycoprotein = details: cited from earlier work
OATP1B1/1B3 = details: cited from earlier work
[2] = test system: CYPs 1A2, 2B6, 2C8, 2C9, 2C19, 2D6, and 3A4; design: method as in data on file; details: ref data on file; cited from earlier work
[3] = test system: host polymerases, including the mitochondrial RNA polymerase; details: cited from earlier work
[4] = test system: breast cancer resistance protein (BCRP); details: ref data on file; cited from earlier work
[5] = in vivo; cited from earlier work
[6] = Group 1 Day 3, AL‐335 alone, mean (SD)
[7] = Group 1 Day 13, AL‐335 + SMV, mean (SD)
[8] = Group 1 Day 23, AL‐335 + ODV + SMV versus AL‐335 alone
[9] = Group 1 Day 23, AL‐335 + ODV + SMV, mean (SD)
[10] = Group 2 Day 3, AL‐335 alone, mean (SD)
[11] = Group 2 Day 13, AL‐335 + ODV, mean (SD)
[12] = Group 2 Day 23, AL‐335 + ODV + SMV versus AL‐335 alone
[13] = Group 2 Day 23, AL‐335 + ODV + SMV, mean (SD)

SMILES: C[C@]1(O)[C@H](n2ccc(=O)[nH]c2=O)O[C@](F)(CO)[C@H]1O [ALS‐022227]
- difference in T max between any of the treatment combinations ([1]; human, in vivo): No clinically relevant difference
- t 1/2 ([1]; human, in vivo): 6.0 (0.5) h
- P‐glycoprotein substrate / inhibitor status (P‐glycoprotein): neither substrates nor inhibitors
- OATP1B1/1B3 substrate / inhibitor status (OATP1B1/1B3): neither substrates nor inhibitors

SMILES: CC(C)OC(=O)[C@H](C)N[P@](=O)(OC[C@@]1(F)O[C@@H](n2ccc(=O)[nH]c2=O)[C@](C)(O)[C@@H]1O)Oc1ccccc1 [AL‐335]
- difference in T max between any of the treatment combinations ([1]; AL‐335 alone or with odalasvir and/or simeprevir): No clinically relevant difference
- C last [1, 6]: 6 (8) ng/mL
- C max [1, 6]: 162 (77) ng/mL
- T last ([1]; Group 1 Day 3, AL‐335 alone, median (range)): 6.00 (4.00‐6.00) h
- C last [1, 7]: 3 (2) ng/mL
- C max [1, 7]: 376 (186) ng/mL
- T last ([1]; Group 1 Day 13, AL‐335 + SMV, median (range)): 8.00 (6.00‐10.00) h
- AUC0‐24 h LSM ratio [1, 8]: 6.92 (5.46‐8.77)
- C max LSM ratio [1, 8]: 4.60 (3.68‐5.75)
- C last [1, 9]: 3 (1) ng/mL
- C max [1, 9]: 747 (340) ng/mL
- T last ([1]; Group 1 Day 23, AL‐335 + ODV + SMV, median (range)): 8.00 (6.00‐10.08) h
- C last [1, 10]: 3 (2) ng/mL
- C max [1, 10]: 151 (72) ng/mL
- T last ([1]; Group 2 Day 3, AL‐335 alone, median (range)): 6.00 (4.00‐8.00) h
- C last [1, 11]: 2 (1) ng/mL
- C max [1, 11]: 516 (259) ng/mL
- T last ([1]; Group 2 Day 13, AL‐335 + ODV, median (range)): 8.00 (4.00‐12.00) h
- AUC0‐24 h LSM ratio [1, 12]: 8.23 (6.26‐10.82)
- C max LSM ratio [1, 12]: 6.30 (4.93‐8.05)
- C last [1, 13]: 2 (1) ng/mL
- C max [1, 13]: 950 (472) ng/mL
- T last ([1]; Group 2 Day 23, AL‐335 + ODV + SMV, median (range)): 10.00 (8.00‐12.03) h
- AUC ([1]; human, in vivo, 800 mg, Group 1 Day 3, AL‐335 alone, mean (SD)): 295 ng·h/mL
- AUC ([1]; human, in vivo, 800 mg, Group 2 Day 3, AL‐335 alone, mean (SD)): 324 ng·h/mL
- Tmax ([1]; human, in vivo, 800 mg, Group 1 Day 3, AL‐335 alone, median (range)): 2 h
- Tmax ([1]; human, in vivo, 800 mg, Group 2 Day 3, AL‐335 alone, median (range)): 2 h
- half-life ([1]; human, in vivo, 800 mg, t 1/2, Group 1 Day 3, AL‐335 alone, mean (SD)): 0.61 h
- half-life ([1]; human, in vivo, 800 mg, t 1/2, Group 2 Day 3, AL‐335 alone, mean (SD)): 0.69 h
- AUC ([1]; human, in vivo, Group 1 Day 13, AL‐335 + SMV, mean (SD)): 1000 ng·h/mL
- AUC ([1]; human, in vivo, Group 1 Day 23, AL‐335 + ODV + SMV, mean (SD)): 2080 ng·h/mL
- AUC ([1]; human, in vivo, Group 2 Day 13, AL‐335 + ODV, mean (SD)): 1330 ng·h/mL
- AUC ([1]; human, in vivo, Group 2 Day 23, AL‐335 + ODV + SMV, mean (SD)): 2920 ng·h/mL
- Tmax ([1]; human, in vivo, Group 1 Day 13, AL‐335 + SMV, median (range)): 2 h
- Tmax ([1]; human, in vivo, Group 1 Day 23, AL‐335 + ODV + SMV, median (range)): 2 h
- Tmax ([1]; human, in vivo, Group 2 Day 13, AL‐335 + ODV, median (range)): 2 h
- Tmax ([1]; human, in vivo, Group 2 Day 23, AL‐335 + ODV + SMV, median (range)): 3 h
- half-life ([1]; human, in vivo, t 1/2, Group 1 Day 13, AL‐335 + SMV, mean (SD)): 0.64 h
- half-life ([1]; human, in vivo, t 1/2, Group 1 Day 23, AL‐335 + ODV + SMV, mean (SD)): 0.69 h
- half-life ([1]; human, in vivo, t 1/2, Group 2 Day 13, AL‐335 + ODV, mean (SD)): 0.62 h
- half-life ([1]; human, in vivo, t 1/2, Group 2 Day 23, AL‐335 + ODV + SMV, mean (SD)): 0.84 h
- AUC 0‐24 h increase ([1]; odalasvir given alone with AL‐335 (abstract)): 3 fold
- AUC 0‐24 h increase ([1]; simeprevir given alone with AL‐335 (abstract)): 4 fold
- inhibition potential for CYPs [2]: low inhibition potential
- interaction with host polymerases [3]: do not interact
- BCRP substrate status [4]: substrate
- OATP1B1/1B3 substrate / inhibitor status (OATP1B1/1B3; ref data on file): neither a substrate nor an inhibitor

SMILES: COC(=O)N[C@H](C(=O)N1[C@H](c2nc3cc(-c4cc5ccc4CCc4ccc(c(-c6ccc7[nH]c([C@@H]8C[C@@H]9CCCC[C@@H]9N8C(=O)[C@@H](NC(=O)OC)C(C)C)nc7c6)c4)CC5)ccc3[nH]2)C[C@@H]2CCCC[C@@H]21)C(C)C [odalasvir]
- AUC0‐24 h ([1]; human, in vivo): 8694 (3956) ng.h/mL
- C max ([1]; human, in vivo): 582 (221) ng/mL
- T max ([1]; human, in vivo): 5.00 (5.0‐7.0) h
- increase in exposure (C max, C min, AUC0‐24 h) ([1]; human, in vivo): 1.5‐ to 2
- C min ([1]; in vivo): 235 (132) ng/mL
- Clast ([1]; in vivo): 287 (150) ng/mL
- T last ([1]; in vivo): 23.9 (23.9‐24.0) h
- clearance route and metabolism [5]: primarily cleared by biliary secretion and undergoes minimal metabolism
- drug‐drug interactions (DDIs) [5]: No clinically significant drug‐drug interactions
- terminal elimination half‐life [5]: approximately 250 hours
